Reference: patent publication US20200170990A1, “METHOD FOR TREATING SCHNITZLER'S SYNDROME” (OLATEC THERAPEUTICS LLC, priority 2017, published 2020)

Legend:
[1] = in vivo; cited from earlier work
[2] = tested on: caspase-1 activity in J774A.1 cells; test: Caspase-1 activity in J774A.1 cell lysates after LPS and nigericin stimulation; type: cell-based, mouse; details: 50 μM, LPS/NIG set at 100%, n=3, p<0.05
Protocol: (§1) J774A.1 murine macrophages cells were stimulated with 1 μg/ml lipopolysaccharide (LPS) for 4 hours and either nigericin (NIG, 10 μM) or ATP (5 mM) was added for 1 hour. Dapansutrile OLT1177® was added to the cells either 30 minutes following LPS stimulation or at the same time as ATP.
Caspase-1 activity is expressed as percent change of the mean value of each assay (n=3) with LPS/NIG set at 100%. Caspase-1 (Cas-1) activity was reduced by 35% (p<0.05) in an enzymatic assay of cell lysate from stimulated cells in the presence of dapansutrile, comparing with control.

[3] = tested on: caspase-1 (p10) in J774A.1 cells; test: Western blot for caspase-1 (p45 and p10) in J774A.1 cells after LPS/ATP stimulation; type: cell-based, mouse
Protocol: as §1
A subunit of activated caspase-1 (p10) was reduced in J774A.1 cells in the presence of dapansutrile.

[4] = tested on: IL-1β release from human monocytes-derived macrophages; test: Suppression of IL-1β release from human monocytes-derived macrophages (LPS priming, nigericin release, ELISA); type: cell-based
Protocol: Peripheral blood mononuclear cells (PBMCs) were isolated from blood of 11 healthy human donors and differenciates in macrophages using GM-CSF (5 ng/ml) for 5 days. They were stimulated with 1 μg/mL with lipopolysaccharide (LPS, priming phase) at time zero. At 30 minutes, they were incubated with different concentrations of dapansutrile (OLT1177®) from 0.001-50 μM. At 4 hours, 10 μM of nigericin (NIG, release phase) was added. At the end of an 5 hour incubation period, the supernatant was harvested and assayed for IL-1β using respective ELISA kits following manafacturer's protocols.

[5] = tested on: mouse IL-1β in synovial membrane; test: Zymosan-induced knee arthritis in mice: IL-1β in synovial membrane (ELISA); type: in vivo; details: 600 mg/kg oral gavage, 24 hours, vs untreated mice
Protocol: (§2) Arthritis was induced in mice by intra-articular injection of zymosan (180 μg) into the knee joint (at time zero) of both knees in each mouse. Mice were treated by oral gavage with vehicle (water, n=5) or dapansutrile in vehicle (600 mg/kg, n=4) at times −25 hr, −13 hr, and −1 hr. After zymosan injection at time zero, mice were further treated with vehicle or dapansutrile (600 mg/kg) at times +11 hr and +23 hr. Mice were sacrificed 24 hours following the Zymosan intraarticulr idministration.
In addition, synovial membrane was taken from one knee per mouse and the cells were lysed for measurement of mouse IL-1β, using an ELISA kit from R&D Systems, Inc., following manufacturer's protocols. The results are shown as mean±standard error of mean and statistical evaluation is performed.

[6] = tested on: zymosan-induced knee joint swelling in mice; test: Zymosan-induced knee arthritis in mice: macroscopic joint swelling; type: in vivo; details: 600 mg/kg oral gavage, zymosan 180 μg intra-articular, 24 hours, vs vehicle-treated mice
Protocol: Zymosan injected directly into the knee joint of mice elicits an inflammatory response and is used as a model of arthritis (Verschure et al, Ann. Rheum Dis. 53:455-460, 1994). Endpoints measured in this model include knee joint swelling score, cytokine levels in the synovial tissue and microscopic pathology of the knee.
as §2
Macroscopic joint swelling was assessed on all knees after the skin is removed using a scoring system ranging from 0 to 3, with 0 being no swelling and 3 being severe swelling.

## Canakinumab: fully human selective monoclonal anti-IL-1β antibody
[1]
  Half-life: 28 days

## CS(=O)(=O)CCC#N [dapansutrile, 3-methanesulfonylpropionitrile]
[2]
  Reduction of caspase-1 activity: 35%
[3]
  Subunit of activated caspase-1 (p10), Western blot: reduced
[4]; LPS priming, nigericin release, compared to control
  Release of IL-1β from stimulated monocytes-derived macrophages: suppresses the release of IL-1β
[4]; human monocytes-derived macrophages, LPS 1 μg/mL + nigericin 10 μM, tested 0.001-50 μM
  Concentration at which maximum suppression effect on IL-1β release was observed: 1 µM
[5]
  Level of IL-1β in synovial membrane: significantly reduced
[6]
  Macroscopic joint swelling (score 0 to 3): significant reduction in the joint swelling
